Laboratory results taken from patent publication US20120157396A1, “PYRAZINAMIDE FOR IMMUNOSTIMULATION AND THE TREATMENT OF LEISHMANIASES” (priority 2009, published 2012).

Tests used:
L. major amastigotes = L. major amastigotes within J774 cells, parasite survival; type: cell-based
Description: To distinguish between leishmaniostatic and leishmanicidal effects, a time course survival curve was generated for J774 cultures infected with L. major.
Amastigotes were generated by infecting J774 murine macrophages. Infections were carried after seeding cells in 8-well Labtek chambers (Thermo Physic Scientific, Rochester N.Y.) at a concentration of 5×10^4 cells/well. To avoid multiplication, cells were incubated with mitomycin C at a concentration of 0.8 μg/ml for 16 h. Infective-stage promastigotes (metacyclics) of L. major were isolated from stationary cultures (4-5 day-old) by Ficoll enrichment, added to macrophage cultures (5 promastigotes: 1 cell) and kept overnight at 37° C. in the presence of 5% CO2 and DMEM with 10% FCS. Sixteen hours later, non-internalized promastigotes were then washed and replaced by culture medium containing the drug. Forty-eight hours later, wells were detached from the slides, stained with Diff-Quick (Dade Behring, Newark, Del.) and counted under light microscope. Parasite burden was determined by observation under light microscopy (1000×) as the number of amastigotes per one hundred J774 cells. Percentage of survival of amastigotes and MIC50 were calculated as above.

L. major promastigotes = assay: L. major promastigote drug treatment, parasite survival after 48 h; type: cell-based
Description: The effect of PZA was first investigated with promastigotes of L. major. PZA was diluted in medium and added to cultures. After 48 h, parasite multiplication was determined by counting parasites in culture. […] Incubation of L. major with 1 μg/ml amphotericin B (as a positive control) caused 100% mortality of promastigotes and 90% of amastigotes.
Mid-log phase (day 3 of culture) L. major promastigotes were employed. Parasite concentration was adjusted to 10^6 promastigotes/ml and seeded into 96-well plates in a volume of 100 μl (final concentration, 10^5 promastigotes/well). PZA was tested in triplicate in a concentration gradient from 1,000-0.5 μg/ml and added to the wells containing the parasite in a volume of 100 μl. A negative control was included with three wells containing only parasites and medium. The positive control consisted of amphotericin B (1 μg/ml). This concentration was previously employed by us because this concentration is equivalent to drug concentrations achieved in human plasma. After 48 h of incubation at 26° C., 10 μL of each well was diluted in 90 μL of the vital colorant (trypan blue in PBS) and the parasites were quantified in a Neubauer chamber. Data was normalized as percentage of survival compared to untreated controls. The Lethal Dose 50 (LD50) was extrapolated from the graph as the concentration of the products that inhibited the parasitic growth at 50% of the values of the negative control.

uninfected J774 cells = type: cell-based
Description: The potential cytotoxicity of PZA toward the mammalian cell line was determined by co-incubation of PZA with uninfected J774 cells for 48 h (10^4 cells/well) in 96-well culture plates. […] At 200 μg/ml, the compound started to show signs of toxicity, resulting in mortality of 25% of the cell monolayer. […] The control drug amphotericin B caused 5% mortality of the cell monolayer at the concentration tested (1 μg/ml).
J774 cell viability following incubation with PZA was also determined. Cells were seeded onto 8-well Labtek chambers as above and incubated with different concentrations of PZA (up to 1 mg/ml) for 48 h, stained with Diff-Quick and counted under light microscope. The percentage of viable cells was determined after quantifying the number of cells present per field (in 25 fields, ca. 500 cells). Percentage of survival and MIC50 were calculated as above.

J774 cells = assay: Cytokine (ELISA) and nitric oxide (Griess test) production in J774 cells; type: cell-based, murine; settings: amphotericin B at the doses tested (0.1-1 μg/ml)
Description: The ability of J774 cells to produce cytokines in response to infection and/or treatment was also determined. Cells were infected, treated or activated as described above. The amount of the proinflammatory cytokines IL-12 and TNF-α (implicated in Thl response and parasite killing), as well as the repressive cytokine IL-10, was determined by ELISA in the culture supernatants. The level of nitric oxide was also determined in the same supernatants. PZA treatment alone increased cytokine production, especially IL-12 and TNF-α and NO release. […] Finally, to test the specificity of the immune activation by PZA, we determined the effect that amphotericin B treatment had on activation and cytokine expression by J774 cells.
J774 cells or bone marrow-derived cells were seeded onto 24-well plates at a concentration of 5×10^5 cells/ml. Twenty-four hours later, PZA was added to the wells at different concentrations in the absence or presence of L. major (1:5 parasite ratio). In some experiments, J774 cells were treated with amphotericin B (0.1, 0.5, or 1 μg/ml). Two control groups were also included in this experiment: a positive control of activation consisting in a group of uninfected cells treated with 100 ng/ml LPS and 10 IU IFN-γ as a positive control of activation, and a negative control of activation, consisting in uninfected, untreated cells. Cell cultures were maintained overnight, and then cultured for an additional 6 h with brefeldin A (10 μg/ml), harvested by scraping and fixed in 2% paraformaldehyde. Prior to staining, cells were incubated with an anti-Fc III/II receptor and 10% normal mouse serum (NMS) in PBS containing 0.1% BSA, 0.01% NaN3. Cells were permeabilized with saponin and stained for the surface markers CD80 (clone 16-10A1), CD86 (clone GL1), MHCI (clone 28-14-8), MHCII (clone M5/114.15.2) and for the cytokines IL-12p40/p70 (clone C17.8) and IL-10 (clone JESS-16E3). Incubations were carried out for 30 min on ice. All antibodies were purchased from BD Biosciences or eBioscience. For each sample, at least 50,000 cells were analyzed. The data were collected and analyzed using CELLQuest software and a FACScalibur flow cytometer (Becton Dickinson, San Jose, Calif.).

Row | SMILES | MIC50 reduced relative to PZA (L. major amastigotes; L. major amastigotes within J774 cells) | MIC50 for PZA analogs (L. major amastigotes; L. major amastigotes within J774 cells (Table Ia)) | mortality of promastigotes (L. major promastigotes; 1 μg/ml amphotericin B) | percentage of survival compared to untreated control (L. major promastigotes; promastigote, Amphotericin B 1 μg/ml, 48 h) | mortality of amastigotes (L. major amastigotes; 1 μg/ml amphotericin B) | percentage of survival compared to untreated control (L. major amastigotes; amastigote in J774, Amphotericin B 1 μg/ml, 48 h) | elimination of parasites from macrophage cultures (L. major amastigotes; amphotericin B 0.1 μg/ml, infected cells) | mortality of the cell monolayer (uninfected J774 cells; amphotericin B 1 μg/ml) | percentage of survival compared to untreated control (uninfected J774 cells; uninfected J774 cells, Amphotericin B 1 μg/ml, 48 h) | activation and cytokine expression of J774 cells (J774 cells)
1 | NC(=O)c1cnc(F)cn1 [5-Fl PZA] | 100 fold | 0.08 μM | – | – | – | – | – | – | – | –
2 | C[C@@H]1[C@H](O)[C@@H](C)/C=C/C=C/C=C/C=C/C=C/C=C/C=C/[C@H](O[C@@H]2O[C@H](C)[C@@H](O)[C@H](N)[C@@H]2O)C[C@@H]2O[C@](O)(C[C@@H](O)C[C@@H](O)[C@H](O)CC[C@@H](O)C[C@@H](O)CC(=O)O[C@H]1C)C[C@H](O)[C@H]2C(=O)O [Amphotericin B, amphotericin B] | – | – | 100% | 0% | 90% | 10 ± 5% | total elimination of parasites | 5% | 95 ± 16% | did not result in activation
